Like-named read-outs stand apart in the source and are kept apart here.
Molecular target: human NAMPT enzyme (His-hNAMPT) (Homo sapiens (Human), UniProt P43490)
Experiment: NAMPT enzymatic inhibition assay (fluorescence, NADH product)
Assay type: biochemical
[1] = [HDB], read-out: NAMPT IC50 (μM) [HDB]
[2] = [BPS], read-out: NAMPT IC50 (μM) [BPS]

human NAMPT enzyme (His-hNAMPT), sequence (P43490 whole entry): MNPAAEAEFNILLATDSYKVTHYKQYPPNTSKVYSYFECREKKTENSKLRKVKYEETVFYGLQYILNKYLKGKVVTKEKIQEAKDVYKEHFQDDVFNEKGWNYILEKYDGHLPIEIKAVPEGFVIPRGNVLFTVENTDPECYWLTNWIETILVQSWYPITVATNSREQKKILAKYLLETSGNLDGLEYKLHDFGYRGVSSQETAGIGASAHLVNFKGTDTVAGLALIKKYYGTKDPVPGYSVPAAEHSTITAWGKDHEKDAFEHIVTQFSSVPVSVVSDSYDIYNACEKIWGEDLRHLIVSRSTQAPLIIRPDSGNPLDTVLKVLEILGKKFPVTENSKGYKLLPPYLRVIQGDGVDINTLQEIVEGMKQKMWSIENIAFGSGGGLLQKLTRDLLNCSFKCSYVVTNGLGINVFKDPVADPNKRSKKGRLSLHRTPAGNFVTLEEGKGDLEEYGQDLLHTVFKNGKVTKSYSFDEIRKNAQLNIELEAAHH

Structure (SMILES) | IC50 [1] | IC50 [2]
O=C(NCC[C@@H]1[C@H]2CN(c3nc(Cl)ncc3F)C[C@@H]12)c1cc2c(nc3sccn32)s1 [Example 220, N-(2-((1R,5S,6s)-3-(2-chloro-5-fluoropyrimidin-4-yl)-3-azabicyclo[3.1.0]hexan-6-yl)ethyl)thieno[2′,3′:4,5]imidazo[2,1-b]thiazole-2-carboxamide] | 0.01 to 0.49 µM | –
O=C(NCC[C@@H]1[C@H]2CN(c3nc(Cl)ncc3F)C[C@@H]12)c1cc2ccncc2o1 [Example 221, N-(2-((1R,5S,6s)-3-(2-chloro-5-fluoropyrimidin-4-yl)-3-azabicyclo[3.1.0]hexan-6-yl)ethyl)furo[2,3-c]pyridine-2-carboxamide] | 0.01 to 0.49 µM | –
O=C(NCC[C@@H]1[C@H]2CN(c3nc(Cl)ncc3F)C[C@@H]12)c1cc2ccncc2s1 [Example 223, N-(2-((1R,5S,6s)-3-(2-chloro-5-fluoropyrimidin-4-yl)-3-azabicyclo[3.1.0]hexan-6-yl)ethyl)thieno[2,3-c]pyridine-2-carboxamide] | 0.01 to 0.49 µM | –
O=C(NCC[C@@H]1[C@H]2CN(c3nc(Cl)ncc3F)C[C@@H]12)c1cnc2[nH]ncc2c1 [Example 224, N-(2-((1R,5S,6s)-3-(2-chloro-5-fluoropyrimidin-4-yl)-3-azabicyclo[3.1.0]hexan-6-yl)ethyl)-1H-pyrazolo[3,4-b]pyridine-5-carboxamide] | 0.01 to 0.49 µM | –
O=C(NCC[C@@H]1[C@H]2CN(c3nc(Cl)ncc3F)C[C@@H]12)N1Cc2ccccc2C1 [Example 225, N-(2-((1R,5S,6s)-3-(2-chloro-5-fluoropyrimidin-4-yl)-3-azabicyclo[3.1.0]hexan-6-yl)ethyl)isoindoline-2-carboxamide] | < 0.01 µM | –
O=C(NCC[C@@H]1[C@H]2CN(c3nc(Cl)ncc3F)C[C@@H]12)N1Cc2ccncc2C1 [Example 226, N-(2-((1R,5S,6s)-3-(2-chloro-5-fluoropyrimidin-4-yl)-3-azabicyclo[3.1.0]hexan-6-yl)ethyl)-1H-pyrrolo[3,4-c]pyridine-2(3H)-carboxamide] | 0.01 to 0.49 µM | –
O=C(NCC[C@@H]1[C@H]2CN(c3nc(Cl)ncc3F)C[C@@H]12)N1Cc2cccnc2C1 [Example 227, N-(2-((1R,5S,6s)-3-(2-chloro-5-fluoropyrimidin-4-yl)-3-azabicyclo[3.1.0]hexan-6-yl)ethyl)-5H-pyrrolo[3,4-b]pyridine-6(7H)-carboxamide] | 0.01 to 0.49 µM | –
N#CN=C(NCC[C@@H]1[C@H]2CN(C(=O)c3ccccc3)C[C@@H]12)Nc1ccncc1 [Example 228, (E)-1-(2-((1R,5S,6s)-3-benzoyl-3-azabicyclo[3.1.0]hexan-6-yl)ethyl)-2-cyano-3-(pyridin-4-yl)guanidine] | – | 0.01 to 0.49 µM
CC1(OC(=O)N2C[C@@H]3[C@@H](CCN/C(=N\C#N)Nc4ccncc4)[C@@H]3C2)COC1 [Example 229, (1R,5S,6s)-3-methyloxetan-3-yl 6-(2-((E)-2-cyano-3-(pyridin-4-yl)guanidino)ethyl)-3-azabicyclo[3.1.0]hexane-3-carboxylate] | – | 0.01 to 0.49 µM

Other lines, results leading:

IC50 [1] | IC50 [2] | Structure (SMILES)
– | 0.01 to 0.49 µM | CC1(OC(=O)N2C[C@@H]3[C@@H](CCNC(=O)N4Cc5ccccc5C4)[C@@H]3C2)COC1 [Example 230, (1R,5S,6s)-3-methyloxetan-3-yl 6-(2-(isoindoline-2-carboxamido)ethyl)-3-azabicyclo[3.1.0]hexane-3-carboxylate]
– | 1 to 29 µM | CC(C)(C)OC(=O)N1C[C@@H]2[C@@H](CNC(=O)c3cc(-c4cccnc4)on3)[C@@H]2C1 [Example 231, (1R,5S,6s)-tert-butyl 6-((5-(pyridin-3-yl)isoxazole-3-carboxamido)methyl)-3-azabicyclo[3.1.0]hexane-3-carboxylate]
– | 0.01 to 0.49 µM | CC(C)(C)OC(=O)N1C[C@@H]2[C@@H](CNC(=O)/C=C/c3cccnc3)[C@@H]2C1 [Example 232, (1R,5S,6s)-tert-butyl 6-(((E)-3-(pyridin-3-yl)acrylamido)methyl)-3-azabicyclo[3.1.0]hexane-3-carboxylate]
1 to 29 µM | > 30 µM | CC(C)(C)OC(=O)N1C[C@@H]2[C@@H](CNC(=O)COc3cccnc3)[C@@H]2C1 [Example 233, (1R,5S,6s)-tert-butyl 6-((2-(pyridin-3-yloxy)acetamido)methyl)-3-azabicyclo[3.1.0]hexane-3-carboxylate]
– | 1 to 29 µM | CC(C)(C)OC(=O)N1C[C@@H]2[C@@H](CNC(=O)/C=C/c3ccc(N)nc3)[C@@H]2C1 [Example 234, (1R,5S,6s)-tert-butyl 6-(((E)-3-(6-aminopyridin-3-yl)acrylamido)methyl)-3-azabicyclo[3.1.0]hexane-3-carboxylate]
– | 1 to 29 µM | CC(C)(C)OC(=O)N1C[C@@H]2[C@@H](CNC(=O)c3cc4ccncc4o3)[C@@H]2C1 [Example 235, (1R,5S,6s)-tert-butyl 6-((furo[2,3-c]pyridine-2-carboxamido)methyl)-3-azabicyclo[3.1.0]hexane-3-carboxylate]
– | > 30 µM | CC(C)(C)OC(=O)N1C[C@@H]2[C@@H](CNC(=O)c3cc4ccncc4s3)[C@@H]2C1 [Example 236, (1R,5S,6s)-tert-butyl 6-((thieno[2,3-c]pyridine-2-carboxamido)methyl)-3-azabicyclo[3.1.0]hexane-3-carboxylate]
– | 0.5 to 0.99 µM | O=C(/C=C/c1cccnc1)NC[C@@H]1[C@H]2CN(C(=O)c3ccccc3)C[C@@H]12 [Example 237, (E)-N-(((1R,5S,6s)-3-benzoyl-3-azabicyclo[3.1.0]hexan-6-yl)methyl)-3-(pyridin-3-yl)acrylamide]
– | 1 to 29 µM | CC1(OC(=O)N2C[C@@H]3[C@@H](CNC(=O)/C=C/c4cccnc4)[C@@H]3C2)COC1 [Example 238, (1R,5S,6s)-3-methyloxetan-3-yl 6-(((E)-3-(pyridin-3-yl)acrylamido)methyl)-3-azabicyclo[3.1.0]hexane-3-carboxylate]
– | 1 to 29 µM | CC1(OC(=O)N2C[C@@H]3[C@@H](CNC(=O)/C=C/c4ccc(N)nc4)[C@@H]3C2)COC1 [Example 239, (1R,5S,6s)-3-methyloxetan-3-yl 6-(((E)-3-(6-aminopyridin-3-yl)acrylamido)methyl)-3-azabicyclo[3.1.0]hexane-3-carboxylate]
– | 1 to 29 µM | Nc1ccc(/C=C/C(=O)NC[C@@H]2[C@H]3CN(C(=O)c4ccccc4)C[C@@H]23)cn1 [Example 240, (E)-3-(6-aminopyridin-3-yl)-N-(((1R,5S,6s)-3-benzoyl-3-azabicyclo[3.1.0]hexan-6-yl)methyl)acrylamide]
– | 1 to 29 µM | CC(C)(C)OC(=O)N1C[C@@H]2[C@H](C1)[C@H]2CC1(NC(=O)/C=C/c2ccc(N)nc2)CC1 [Example 241, (1R,5S,6s)-tert-butyl 6-((1-((E)-3-(6-aminopyridin-3-yl)acrylamido)cyclopropyl)methyl)-3-azabicyclo[3.1.0]hexane-3-carboxylate]
– | > 30 µM | CC(C)(C)OC(=O)N1C[C@@H]2[C@H](C1)[C@H]2CC1(NC(=O)/C=C/c2cccnc2)CC1 [Example 242, (1R,5S,6s)-tert-butyl 6-((1-((E)-3-(pyridin-3-yl)acrylamido)cyclopropyl)methyl)-3-azabicyclo[3.1.0]hexane-3-carboxylate]
0.01 to 0.49 µM | – | O=C(/C=C/c1cccnc1)NCC[C@@H]1[C@H]2CN(Cc3ccccc3)C[C@@H]12 [Example 243, (E)-N-(2-((1R,5S,6s)-3-benzyl-3-azabicyclo[3.1.0]hexan-6-yl)ethyl)-3-(pyridin-3-yl)acrylamide]

— US12421210B2, “Fused bicyclic heterocycles as therapeutic agents” (NEW YORK UNIVERSITY, priority 2018, dated 2025)
